Measured values as given in US8088412B2, “Intralymphatic chemotherapy drug carriers” (priority 2008, dated 2012).
Where two headings read alike, the source gives them in different places. Marks after values point to notes of the source that are not given here.

Legend:
MDA-1986 cells = assay: In vivo efficacy of HA-cisplatin, orthotopic HNSCC model; set-up: species or system Nu/Nu female athymic nude mice; details: intravenous, weekly dose of 3.3 mg/kg for 3 weeks; 3 mice
From the text: The in vivo efficacy of HA-cisplatin was studied. All treatment began once animal HNSCC tumors reached 100 mm3 volume. Treatment commenced for 3 weeks. All animals were given 5×10^5 MDA-1986 cells in the buccal mucosa of the left cheek (which is a novel orthotopic HNSCC model I developed this year) and tumors develop in 2-3 weeks.

MDA-MB-468LN = assay: Cell proliferation over 72 hrs, resazurin blue; assay type: cell-based, human
Experimental: Preceding proliferation studies, cells were trypsinized and seeded into 96-well plates (5,000 cells/well). […] After 4 hrs, well fluorescence was measured (λex 560 nm, λem 590 nm) using a fluorophotometer (SpectraMax Gemini; Molecular Devices, Sunnyvale, Calif.). IC50 was determined as the midpoint between saline (positive) and cell-free (negative) controls for each plate.

[1] = Tissue distribution after subcutaneous cisplatin or cisplatin-HA into right mammary fat pad; assay type: in vivo, Sprague-Dawley rats
Experimental: Animals were allowed to recover with access to food and water. […] Organs and tissues were washed with 0.9% saline and frozen (−80° C.) until analysis. Plasma was separated by centrifugation from whole blood and frozen (−80° C.).
In vitro release samples (n=3) and plasma samples (n=5) were diluted 200-fold and 10-fold, respectively, with 0.1% nitric acid for analysis. […] Lymph nodes were processed similarly using 10 mg of tissue. After digestion, samples were homogenized (Tissue Tearor, BioSpec Products Inc., Bartlesville, Okla.). All samples were centrifuged (17 000×g, 20 min), and the supernate used for analysis.
Analysis was performed on a Varian SpectrAA GTA-110 with graphite furnace and partition tubes. Samples (21 μL) were injected using the autosampler, followed by 19 μL of 0.1% nitric acid. […] The furnace program was as follows: ramp 25 to 80° C., hold 2 s, ramp to 120° C., hold 10 s, ramp to 1000° C., hold 5 s, ramp to 2700° C., hold 2 s, cool to 25° C. over 20 s. The graphite partition tube was cleaned every 40 samples by baking at 2800° C. for 7 s. Argon was used as the injection and carrier gas.

MCF7 = assay: In vitro cell toxicity (DMEM, resazurin blue, 72 hrs); assay type: cell-based, human
Experimental: (§1) Cell lines were seeded into 96-well plates (5000 cells/well) in DMEM medium supplemented with 5% FBS and 1% penicillin/streptomycin.

MDA-MB-231 = assay: as above; assay type: cell-based, human
Experimental: as §1

MDA-MB-468LN tumor cells = assay: Efficacy of HA-doxorubicin vs intravenous doxorubicin, breast tumor xenograft; assay type: in vivo, nude mice; details: 6 weeks post-implantation; in saline via the tail vein, doses at 3 and 5 weeks
Experimental: Nude nu/nu mice were implanted with 1×10^6 cells (MDA-MB-468LN human breast cancer cells) into the mammary fatpad, after approximately 4 weeks a 100-200 mm^3 tumor had developed in the axillary lymph node package. Animals were randomly divided into four treatment groups of five animals each: intravenous saline, s.q. HA, intravenous cisplatin, or s.q. HA-cisplatin. At this point, doses were administered to the animals. In the HA-cisplatin and the HA groups, HA-cisplatin (3.3 mg/kg based on Pt-content) or HA (3.3 mg/kg) was dissolved in 100 mcL saline was injected subcutaneously peritumorally. […] In all study groups, a second dose was administered after 1 week. Tumor volumes were measured weekly using calipers and the formula: Volume=0.52×(width^2*length). Animals were euthanized when the tumor volume exceeded […] or the body score index fell below 2.
To evaluate the efficacy of HA-doxorubicin conjugates injected subcutaneously in the […] compared with intravenous doxorubicin, the following experiment was performed. MDA-MB-468LN tumor cells into nude mice as described in [128] and divided into four groups of five animals each. After 3 weeks, HA-DOX was injected peritumorally at 3.3 mg/kg (DOX basis), DOX was injected in saline via the tail vein, HA was injected peritumorally, and saline was injected via the tail vein. […]

SMILES: N.N.[Cl][Pt][Cl] [Cisplatin, cis-diamminedichloroplatinum, reference compound]
- tumor growth delay (MDA-1986 cells): about 3 weeks
- IC50 (MDA-MB-468LN; HA carriers on a Pt-basis equivalent to cisplatin): 5 µg/mL
- IC50 (MDA-MB-468LN; Pt-basis, read-out: IC50): 17 µM
- AUC (0-96 hrs) ([1]; Bladder, subcutaneous into right mammary fatpad of female rats): 208.5 µg·h/g
- AUC (0-96 hrs) ([1]; Brain, subcutaneous into right mammary fatpad): 442.5 µg·h/g
- AUC (0-96 hrs) ([1]; Heart, subcutaneous into right mammary fatpad): 459.0 µg·h/g
- AUC (0-96 hrs) ([1]; Kidneys, subcutaneous into right mammary fatpad): 650.9 µg·h/g
- AUC (0-96 hrs) ([1]; Left lymph node (LLN), subcutaneous into right mammary fatpad): 349.5 µg·h/g
- AUC (0-96 hrs) ([1]; Liver, subcutaneous into right mammary fatpad): 415.6 µg·h/g
- AUC (0-96 hrs) ([1]; Lungs, subcutaneous into right mammary fatpad): 409.8 µg·h/g
- AUC (0-96 hrs) ([1]; Muscle, subcutaneous into right mammary fatpad): 371.5 µg·h/g
- AUC (0-96 hrs) ([1]; Plasma, subcutaneous into right mammary fatpad): 174.1 µg·h/g
- AUC (0-96 hrs) ([1]; Right lymph node (RLN), subcutaneous into right mammary fatpad, p < 0.05): 446.0 ^† μg · hr/g
- AUC (0-96 hrs) ([1]; Spleen, subcutaneous into right mammary fatpad): 349.1 µg·h/g
- serum Cmax ([1]; intravenous (as worded in legend of FIG. 10B)): over 4 micrograms/mL
- IC50 (MCF7; MCF-7, cisplatin basis): 7 µg/mL
- IC50 (MCF7; MCF-7, read-out: IC50): 23 µM
- IC50 (MDA-MB-231; cisplatin basis): 4 µg/mL
- IC50 (MDA-MB-231; cisplatin basis, listed as cisplatin): 7 µg/mL
- IC50 (MDA-MB-231; read-out: IC50): 13 µM

SMILES: COc1cccc2c1C(=O)c1c(O)c3c(c(O)c1C2=O)C[C@@](O)(C(=O)CO)C[C@@H]3O[C@H]1C[C@H](N)[C@H](O)[C@H](C)O1 [DOX, doxorubicin]
- tumor volume (MDA-MB-468LN tumor cells): greater than 300 mm^3
